Data taken from patent publication US11026972B2, “Methods for generating macrophages with enhanced cancer phagocytosis” (Georgia State University Research Foundation, Inc., priority 2016, dated 2021).

What was measured:
Type in all cases: cell-based, mouse
[1] = test system: splenic macrophages, PEMs and BMDMs; assay: Ex vivo macrophage phagocytosis toward RBCs and other self-cells after activation
How it was run: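 Mouse splenic or peritoneal macrophages (2 h adherent selection) or BMDMs (M-CSF ~10 ng/ml, 5-6 days) were co-incubated 30 min at 37 °C with CFSE-labelled RBCs (1:5-10) or other cells (1:1-2). Uptake was scored by fluorescence microscopy and/or FACS with anti-F4/80 or anti-CD11b macrophage labelling.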

PEMs [2] = assay: Cell signaling inhibitors on LPS/cytokine- or PMA-induced PEM phagocytic activation toward RBCs; conditions: PMA treatment
Experimental: FIGS. 5A-5H include data related to our experiments on the role of Syk in phagocytic activation. […] PEMs were treated with LPS and cytokines in the presence of various inhibitors. After washing, inhibitor-free macrophages were tested for phagocytosis toward RBCs. […] PEMs treated with LPS and activating cytokines, or together with IL-10, were tested for total Syk and phosphorylated Syk (Syk^pY, specific at Y519/520). FIG. 5D describes PMA-induced macrophages phagocytosis toward RBCs. WT and SIRPα^−/− PEMs were treated with PMA (37° C., 30 min) before testing phagocytosis toward RBCs. FIG. 5E is a schematic depiction of PKC-Syk-mediated macrophage phagocytic activation toward self. […] Left: Inhibition of Syk by piceatannol and R406 prevented PMA-induced phagocytic activation. […] Error bars are ±SEM. ***P<0.001 vs. the respective controls. […] LPS-treated WT PEMs were further briefly treated with pervanadate before testing for phagocytosis toward RBCs. Error bars are ±SEM. ***P<0.001 vs. the respective controls. […] Data presented in each panel represent at least three independent experiments with n≥4, if applicable.
(§1) Ex vivo macrophage phagocytosis: Mouse spleens were harvested and minced in cold HBSS followed by passing through nylon meshes. The spleen cells in suspensions were collected by centrifugation followed by washing. After lysis of RBC, splenocytes were plated in cell culture dishes in DMEM with 10% FBS and cultured for 2 h followed by removal of non-adherent cells. The adherent cells, ˜70% being macrophages as determined by anti-F4/80 staining, were tested for phagocytosis. For phagocytosis of RBC or other tissue cells, targeted cells were labeled with CFSE prior to addition into the macrophage-containing wells. Macrophages and target cells, at a ratio of 1:5-10 for RBC or 1:1-2 for other cells, were co-incubated for 30 min at 37° C. followed by gently washing. Macrophage phagocytosis of target cells was then analyzed by fluorescence microscopy and/or by FACS. […] Alternatively, the freshly isolated splenocytes in suspension were incubated with CFSE-labeled RBC and other phagocytic targets for 30 min at 37° C. Macrophage phagocytosis was then determined by FACS after labeling macrophages with anti-F4/80. To test phagocytosis of apoptotic cells, B16 cells were irradiated by UV for 150 seconds at 50 J/m^2 strength. Apoptosis was analyzed at 2, 4, 6, 8 and 18 h post UV irradiation by labeling of the cells with anti-phosphatidylserine (PS) antibody (data not shown) or FITC-conjugated annexin V (data not shown). Cells that were confirmed to be apoptotic were trypsinized, labeled with CFSE, and then co-incubated with macrophages for 30 min at 37° C. After gentle washing, phagocytosis was analyzed by fluorescence microscopy and/or FACS. To test phagocytosis of bacteria and the fungal product zymosan, AlexaFluor-conjugated E.coli strain […] (2 μl suspension, ˜2 μg) or zymosan bioparticles (1 μl suspension, ˜2 μg) (both from Invitrogen) were incubated with macrophages for 30 min followed by washing and analyses. Similar procedures were performed to test phagocytosis of macrophages from various sources. To obtain peritoneal macrophages, peritonea of mice were lavaged by sterile PBS followed by centrifugation to collect cells. Cells suspended in DMEM with 10% FBS were then plated in cell culture dishes and incubated for 2 h at 37° C. followed by removal of non-adherent cells. To produce bone marrow-derived macrophages, freshly isolated bone marrow cells were culture in macrophage colony-stimulating factor (MCSF, ˜10 ng/ml)-containing MEM with 10% FBS for five-six days and macrophage differentiation was confirmed by anti-F4/80 staining.

SIRPα = SIRPα immunoprecipitation and WB detection of SIRPα ITIM phosphorylation and SHP-1 association; conditions: PMA treatment
Experimental: FIGS. 4A-4E include data related to our experiments on macrophage phagocytic plasticity. FIG. 4A is a panel of illustrative line graphs showing that IL-10 inhibits macrophage phagocytosis toward “self.” PEMs were treated with LPS and activating cytokines along with various concentrations of IL-10 before testing their ability to phagocytose RBCs. FIG. 4B illustrates the phagocytic plasticity of WT red pulp macrophages. […] Treatments of cultured macrophages with LPS and IL-17 re-elicited their phagocytosis toward RBCs. […] Error bars are ±SEM. ***P<0.001 vs. freshly isolated splenic macrophages. FIG. 4D includes microscopic images of RBC phagocytosis by LPS- and IL-17-treated splenic macrophages. […] WT PEMs treated with LPS or IL-17 were further treated with Cd47^+ RBCs or Cd47-AP (10 min, 37° C.) followed by cell lysis, SIRPα immunoprecipitation, and WB detection of SIRPα phosphorylation (SIRPα^pY) and SHP-1 association. Data presented in each panel represent at least three independent experiments with n≥4, if applicable.
FIGS. 5A-5H include data related to our experiments on the role of Syk in phagocytic activation. […] PEMs were treated with LPS and cytokines in the presence of various inhibitors. After washing, inhibitor-free macrophages were tested for phagocytosis toward RBCs. […] PEMs treated with LPS and activating cytokines, or together with IL-10, were tested for total Syk and phosphorylated Syk (Syk^pY, specific at Y519/520). FIG. 5D describes PMA-induced macrophages phagocytosis toward RBCs. WT and SIRPα^−/− PEMs were treated with PMA (37° C., 30 min) before testing phagocytosis toward RBCs. FIG. 5E is a schematic depiction of PKC-Syk-mediated macrophage phagocytic activation toward self. […] Left: Inhibition of Syk by piceatannol and R406 prevented PMA-induced phagocytic activation. […] Error bars are ±SEM. ***P<0.001 vs. the respective controls. […] LPS-treated WT PEMs were further briefly treated with pervanadate before testing for phagocytosis toward RBCs. Error bars are ±SEM. ***P<0.001 vs. the respective controls. […]

[3] = test system: cell surface LRP1 and CRT on PEMs; assay: Macrophage cell surface CRT and LRP1 by FACS; conditions: after PMA treatment
Experimental: FIGS. 6A-6D include data related to our investigation of possible phagocytic receptors on macrophages for phagocytosing healthy self-cells. […] PEM (unstimulated) phagocytosis toward apoptotic B16 cells was tested in the presence of same antibodies and RAP as in A. Error bars are ±SEM. ***P<0.001 vs. phagocytosis in the presence of control IgG. […] PEMs, with or without (ctl.) treatment with LPS, IL-17, IL-6, or PMA, were labeled for cell surface LRP1 and CRT followed by FACS. Increased and decreased expressions were marked by arrows. […] Activated PEM phagocytosis toward RBCs was tested in the presence of antibodies against SR-A, Fc receptor Cd16/32 (10 μg/mL of each), inhibitors against SR-B (BLT1, 5 μM), dectin (laminarin, 100 μg/mL), complement (heparin, 40 U/mL), and antibody against Cd11b (10 μg/mL). Error bars are ±SEM. ***P<0.001 vs. the respective control without inhibition. Data presented in each panel represent at least three independent experiments with n≥4, if applicable.

PEMs [4] = assay: Activated PEM phagocytosis toward RBCs in the presence of antibodies/inhibitors against phagocytic receptors; conditions: anti-CRT 10 μg/mL each; anti-LRP1 20 μg/mL; RAP 20 μg/mL
Experimental: (§2) FIGS. 6A-6D include data related to our investigation of possible phagocytic receptors on macrophages for phagocytosing healthy self-cells. […] PEMs, with or without (ctl.) treatment with LPS, IL-17, IL-6, or PMA, were labeled for cell surface LRP1 and CRT followed by FACS. […] Activated PEM phagocytosis toward RBCs was tested in the presence of antibodies against SR-A, Fc receptor Cd16/32 (10 μg/mL of each), inhibitors against SR-B (BLT1, 5 μM), dectin (laminarin, 100 μg/mL), complement (heparin, 40 U/mL), and antibody against Cd11b (10 μg/mL). […] Data presented in each panel represent at least three independent experiments with n≥4, if applicable.
as §1, with “To obtain peritoneal macrophages, peritonea of mice were lavaged by sterile PBS followed by centrifugation to collect cells. Cells suspended in DMEM with 10% FBS were then plated in cell culture dishes and incubated for 2 h at 37° C. followed by removal of non-adherent cells. To produce bone marrow-derived macrophages, freshly isolated bone marrow cells were culture in macrophage colony-stimulating factor (MCSF, ˜10 ng/ml)-containing MEM with 10% FBS for five-six days and macrophage differentiation was confirmed by anti-F4/80 staining.” left out

PEMs [5] = assay: PEM (unstimulated) phagocytosis toward apoptotic B16 cells; conditions: same antibodies and RAP as for RBCs
Experimental: as §2
Ex vivo macrophage phagocytosis: Mouse spleens were harvested and minced in cold HBSS followed by passing through nylon meshes. […] The adherent cells, ˜70% being macrophages as determined by anti-F4/80 staining, were tested for phagocytosis. […] Macrophage phagocytosis of target cells was then analyzed by fluorescence microscopy and/or by FACS. […] Macrophage phagocytosis was then determined by FACS after labeling macrophages with anti-F4/80. […] Apoptosis was analyzed at 2, 4, 6, 8 and 18 h post UV irradiation by labeling of the cells with anti-phosphatidylserine (PS) antibody (data not shown) or FITC-conjugated annexin V (data not shown). […] After gentle washing, phagocytosis was analyzed by fluorescence microscopy and/or FACS. […]

Compound	time to elicitation of phagocytosis [1]	phagocytic target discrimination ([1]; PMA-treated WT PEMs)	PEM phagocytosis toward RBCs ([1]; low nanomolar concentrations, 37° C., 30 min)	rescue of Syk inhibition-repressed PEM phagocytic activation by LPS (PEMs [2])	SIRPα expression, SIRPα ITIM phosphorylation and SHP-1 association (SIRPα)	reduction of CRT and LRP1 expression on PEMs [3]	LPS/cytokine-induced PEM phagocytosis toward RBCs (PEMs [4])	phagocytosis toward apoptotic cells (PEMs [5])
CCCCCCCCCCCCCC(=O)O[C@@H]1[C@@H](C)[C@@]2(O)[C@@H](C=C(CO)C[C@]3(O)C(=O)C(C)=C[C@@H]23)[C@@H]2C(C)(C)[C@]12OC(C)=O [PMA, phorbol 12-myristate 13-acetate]	< 30 min	aggressively phagocytosed both CD47^− and CD47^+ RBCs	instantly initiated PEM to phagocytose RBCs	failed to rescue	neither reduced SIRPα expression nor affected SIRPα ITIM phosphorylation and SHP-1 association	~50%	–	–
RAP: LRP1 receptor-associated protein, which inhibits CRT-LRP1 binding	–	–	–	–	–	–	failed to inhibit	significantly inhibited
